In patent US20080139558A1, “QUINOLONES USEFUL AS INDUCIBLE NITRIC OXIDE SYNTHASE INHIBITORS” (KALYPSYS, INC., priority 2006, published 2008):

Target: T1, human iNOS (Homo sapiens, UniProt P35228)
T1 construct: expressed in transfected cells; host or cells: HEK293
Assay: DAN assay of nitric oxide production (hiNOS)
Type: cell-based
Conditions: enzyme expressed in HEK293 cells transiently transfected with human iNOS
Procedure, shortened: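 Human iNOS transiently expressed in HEK293 cells; NO production quantified as nitrite via 2,3-diaminonaphthalene reaction forming fluorescent naphthotriazole.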

T1 sequence (P35228 whole entry): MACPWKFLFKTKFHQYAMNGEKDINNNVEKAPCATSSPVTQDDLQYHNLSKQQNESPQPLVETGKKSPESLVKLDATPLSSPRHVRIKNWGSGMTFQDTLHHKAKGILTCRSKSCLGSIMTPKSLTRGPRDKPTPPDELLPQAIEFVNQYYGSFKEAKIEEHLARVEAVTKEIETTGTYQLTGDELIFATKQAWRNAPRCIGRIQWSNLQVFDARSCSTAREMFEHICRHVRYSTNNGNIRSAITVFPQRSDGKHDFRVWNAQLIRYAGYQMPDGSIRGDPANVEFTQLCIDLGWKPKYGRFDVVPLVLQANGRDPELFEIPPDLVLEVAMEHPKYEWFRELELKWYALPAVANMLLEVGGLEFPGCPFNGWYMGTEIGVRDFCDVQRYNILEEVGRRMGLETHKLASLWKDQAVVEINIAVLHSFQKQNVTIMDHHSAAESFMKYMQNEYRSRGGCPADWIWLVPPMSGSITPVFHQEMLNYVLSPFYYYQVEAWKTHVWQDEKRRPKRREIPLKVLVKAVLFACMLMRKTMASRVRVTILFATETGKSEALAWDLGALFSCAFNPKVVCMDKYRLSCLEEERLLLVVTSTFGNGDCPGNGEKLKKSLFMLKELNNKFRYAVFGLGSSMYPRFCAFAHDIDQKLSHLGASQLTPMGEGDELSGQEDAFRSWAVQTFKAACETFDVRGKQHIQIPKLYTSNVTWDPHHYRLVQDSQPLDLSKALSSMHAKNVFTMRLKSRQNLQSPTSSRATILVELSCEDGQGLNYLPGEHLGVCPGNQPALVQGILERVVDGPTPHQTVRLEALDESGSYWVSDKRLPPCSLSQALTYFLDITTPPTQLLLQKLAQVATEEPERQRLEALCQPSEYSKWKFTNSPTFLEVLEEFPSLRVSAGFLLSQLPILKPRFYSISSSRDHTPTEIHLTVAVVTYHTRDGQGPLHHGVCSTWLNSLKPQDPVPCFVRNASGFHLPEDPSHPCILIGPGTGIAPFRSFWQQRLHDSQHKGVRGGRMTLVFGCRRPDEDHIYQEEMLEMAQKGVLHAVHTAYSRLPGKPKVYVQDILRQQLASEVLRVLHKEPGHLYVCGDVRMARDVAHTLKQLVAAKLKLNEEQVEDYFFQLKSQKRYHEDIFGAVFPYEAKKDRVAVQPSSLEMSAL

SMILES | EC50
Cc1nccn1-c1nc2ccccc2n1Cc1cc(=O)[nH]c2c(F)c(F)ccc12 [Example 208, 7,8-Difluoro-4-((2-(2-methyl-1H-imidazol-1-yl)-1H-benzo[d]imidazol-1-yl)methyl)quinolin-2(1H)-one] | ≤ 5 µM
O=c1cc(Cn2c(C3CCCC3)nc3ccccc32)c2ccc(F)c(F)c2[nH]1 [Example 209, 4-((2-Cyclopentyl-1H-benzo[d]imidazol-1-yl)methyl)-7,8-difluoroquinolin-2(1H)-one] | ≤ 5 µM
CC(C)CCc1nc2ccccc2n1Cc1cc(=O)[nH]c2c(F)c(F)ccc12 [Example 211, 7,8-Difluoro-4-((2-isopentyl-1H-benzo[d]imidazol-1-yl)methyl)quinolin-2(1H)-one] | ≤ 5 µM
O=c1cc(Cn2c(C3CCNCC3)nc3ccccc32)c2ccc(F)c(F)c2[nH]1 [Example 212, 7,8-Difluoro-4-((2-(piperidin-4-yl)-1H-benzo[d]imidazol-1-yl)methyl)quinolin-2(1H)-one] | > 5 µM
O=c1cc(Cn2c(CCC3CCCCC3)nc3ccccc32)c2ccc(F)c(F)c2[nH]1 [Example 213, 4-((2-(2-Cyclohexylethyl)-1H-benzo[d]imidazol-1-yl)methyl)-7,8-difluoroquinolin-2(1H)-one] | > 5 µM
O=c1cc(Cn2c(Cc3ccccc3)nc3ccccc32)c2ccc(F)c(F)c2[nH]1 [Example 214, 4-((2-Benzyl-1H-benzo[d]imidazol-1-yl)methyl)-7,8-difluoroquinolin-2(1H)-one] | ≤ 5 µM
O=c1cc(Cn2c(CC3CCCC3)nc3ccccc32)c2ccc(F)c(F)c2[nH]1 [Example 215, 4-((2-(Cyclopentylmethyl)-1H-benzo[d]imidazol-1-yl)methyl)-7,8-difluoroquinolin-2(1H)-one] | ≤ 5 µM
Cc1ccccc1Cc1nc2ccccc2n1Cc1cc(=O)[nH]c2c(F)c(F)ccc12 [Example 216, 7,8-Difluoro-4-((2-(2-methylbenzyl)-1H-benzo[d]imidazol-1-yl)methyl)quinolin-2(1H)-one] | > 5 µM
CCC(CC)c1nc2ccccc2n1Cc1cc(=O)[nH]c2c(F)c(F)ccc12 [Example 217, 7,8-Difluoro-4-((2-(pentan-3-yl)-1H-benzo[d]imidazol-1-yl)methyl)quinolin-2(1H)-one] | ≤ 5 µM
O=c1cc(Cn2c(-n3ccnc3)nc3ccccc32)c2ccc(F)c(F)c2[nH]1 [Example 218, 4-((2-(1H-Imidazol-1-yl)-1H-benzo[d]imidazol-1-yl)methyl)-7,8-difluoroquinolin-2(1H)-one] | ≤ 5 µM
CCCc1nc2ccccc2n1Cc1cc(=O)[nH]c2c(F)c(F)ccc12 [Example 219, 7,8-Difluoro-4-((2-propyl-1H-benzo[d]imidazol-1-yl)methyl)quinolin-2(1H)-one] | ≤ 5 µM
CCc1nc2ccccc2n1Cc1cc(=O)[nH]c2c(F)c(F)ccc12 [Example 221, 7,8-Difluoro-4-((2-ethyl-1H-benzo[d]imidazol-1-yl)methyl)quinolin-2(1H)-one] | ≤ 5 µM
Cc1cccc2c1nc(C(C)C)n2Cc1cc(=O)[nH]c2c(F)c(F)ccc12 [Example 224, 7,8-Difluoro-4-((2-isopropyl-4-methyl-1H-benzo[d]imidazol-1-yl)methyl)quinolin-2(1H)-one] | ≤ 5 µM
Cc1cccc2c1nc(CC(C)C)n2Cc1cc(=O)[nH]c2c(F)c(F)ccc12 [Example 225, 7,8-Difluoro-4-((2-isobutyl-4-methyl-1H-benzo[d]imidazol-1-yl)methyl)quinolin-2(1H)-one] | ≤ 5 µM
Cc1c(-c2nc3ccccc3n2Cc2cc(=O)[nH]c3c(F)c(F)ccc23)ncn1C [Example 226, 4-((2-(1,5-Dimethyl-1H-imidazol-4-yl)-1H-benzo[d]imidazol-1-yl)methyl)-7,8-difluoroquinolin-2(1H)-one] | > 5 µM
CC(C)c1nc2cc(F)c(F)cc2n1Cc1cc(=O)[nH]c2c(F)c(F)ccc12 [Example 229, 7,8-Difluoro-4-((5,6-difluoro-2-isopropyl-1H-benzo[d]imidazol-1-yl)methyl)quinolin-2(1H)-one] | > 5 µM
CC(C)c1nc2ccn(Cc3cc(=O)[nH]c4c(F)c(F)ccc34)cc-2n1 [Example 230, 7,8-Difluoro-4-((2-isopropyl-5H-imidazo[4,5-c]pyridin-5-yl)methyl)quinolin-2(1H)-one] | > 5 µM
Cc1noc(C)c1-c1nc2ccccc2n1Cc1cc(=O)[nH]c2c(F)c(F)ccc12 [Example 232, 4-((2-(3,5-Dimethylisoxazol-4-yl)-1H-benzo[d]imidazol-1-yl)methyl)-7,8-difluoroquinolin-2(1H)-one] | ≤ 5 µM
Cn1nccc1-c1nc2ccccc2n1Cc1cc(=O)[nH]c2c(F)c(F)ccc12 [Example 233, 7,8-Difluoro-4-((2-(1-methyl-1H-pyrazol-5-yl)-1H-benzo[d]imidazol-1-yl)methyl)quinolin-2(1H)-one] | ≤ 5 µM
CC(C)(C)Cc1nc2ccccc2n1Cc1cc(=O)[nH]c2c(F)c(F)ccc12 [Example 237, 7,8-Difluoro-4-((2-neopentyl-1H-benzo[d]imidazol-1-yl)methyl)quinolin-2(1H)-one] | > 5 µM
CC(C)c1nn(Cc2cc(=O)[nH]c3c(F)c(F)ccc23)c2ccccc12 [Example 239, 7,8-Difluoro-4-((3-isopropyl-1H-indazol-1-yl)methyl)quinolin-2(1H)-one] | > 5 µM
Cc1ccccc1-c1nc2ccccc2n1Cc1cc(=O)[nH]c2c(F)c(F)ccc12 [Example 240, 7,8-Difluoro-4-((2-o-tolyl-1H-benzo[d]imidazol-1-yl)methyl)quinolin-2(1H)-one] | > 5 µM
O=c1cc(Cn2c(-c3ccccc3Cl)nc3ccccc32)c2ccc(F)c(F)c2[nH]1 [Example 241, 4-((2-(2-Chlorophenyl)-1H-benzo[d]imidazol-1-yl)methyl)-7,8-difluoroquinolin-2(1H)-one] | ≤ 5 µM
CN(C)c1ccccc1-c1nc2ccccc2n1Cc1cc(=O)[nH]c2c(F)c(F)ccc12 [Example 242, 4-((2-(2-(Dimethylamino)phenyl)-1H-benzo[d]imidazol-1-yl)methyl)-7,8-difluoroquinolin-2(1H)-one] | > 5 µM
Cc1ccc(C)c(-c2nc3ccccc3n2Cc2cc(=O)[nH]c3c(F)c(F)ccc23)c1 [Example 243, 4-((2-(2,5-Dimethylphenyl)-1H-benzo[d]imidazol-1-yl)methyl)-7,8-difluoroquinolin-2(1H)-one] | > 5 µM
O=c1cc(Cn2c(-c3ccncc3F)nc3ccccc32)c2ccc(F)c(F)c2[nH]1 [Example 244, 7,8-Difluoro-4-((2-(3-fluoropyridin-4-yl)-1H-benzo[d]imidazol-1-yl)methyl)quinolin-2(1H)-one] | ≤ 5 µM
O=c1cc(Cn2c(-c3ccccc3C(F)(F)F)nc3ccccc32)c2ccc(F)c(F)c2[nH]1 [Example 245, 7,8-Difluoro-4-((2-(2-(trifluoromethyl)phenyl)-1H-benzo[d]imidazol-1-yl)methyl)quinolin-2(1H)-one] | ≤ 5 µM
Cc1cccc(C)c1-c1nc2ccccc2n1Cc1cc(=O)[nH]c2c(F)c(F)ccc12 [Example 246, 4-((2-(2,6-Dimethylphenyl)-1H-benzo[d]imidazol-1-yl)methyl)-7,8-difluoroquinolin-2(1H)-one] | > 5 µM
O=c1cc(Cn2c(-c3c(F)cccc3F)nc3ccccc32)c2ccc(F)c(F)c2[nH]1 [Example 247, 4-((2-(2,6-Difluorophenyl)-1H-benzo[d]imidazol-1-yl)methyl)-7,8-difluoroquinolin-2(1H)-one] | > 5 µM
